# Measured values published in patent US6126917A, “Epidermal growth factor receptor binding compounds for positron emission tomography” (Hadasit Medical Research Services and Development Ltd., priority 1999, dated 2000).
# Where “and” joins values, the source holds several entries; their conditions need not be identical. Equal values may be shown once. Entries after “also recorded” stand apart in the source; their conditions may differ. Read-outs that look alike come from different tables or passages of the source.
# Key:
# EGFR-TK = biological target: T1, EGFR-TK (Homo sapiens, UniProt P00533); assay: EGFR-TK autophosphorylation inhibition (ELISA assay); format: biochemical
# T1 construct: As a source of EGFR-TK, A431 human epidermoid carcinoma cell lysate was used; endogenous in cells; host or cells: A431 human epidermoid carcinoma cells (Triton X-100 lysate, EGFR captured by monoclonal antibody m108)
# T1 sequence (P00533 25-1210): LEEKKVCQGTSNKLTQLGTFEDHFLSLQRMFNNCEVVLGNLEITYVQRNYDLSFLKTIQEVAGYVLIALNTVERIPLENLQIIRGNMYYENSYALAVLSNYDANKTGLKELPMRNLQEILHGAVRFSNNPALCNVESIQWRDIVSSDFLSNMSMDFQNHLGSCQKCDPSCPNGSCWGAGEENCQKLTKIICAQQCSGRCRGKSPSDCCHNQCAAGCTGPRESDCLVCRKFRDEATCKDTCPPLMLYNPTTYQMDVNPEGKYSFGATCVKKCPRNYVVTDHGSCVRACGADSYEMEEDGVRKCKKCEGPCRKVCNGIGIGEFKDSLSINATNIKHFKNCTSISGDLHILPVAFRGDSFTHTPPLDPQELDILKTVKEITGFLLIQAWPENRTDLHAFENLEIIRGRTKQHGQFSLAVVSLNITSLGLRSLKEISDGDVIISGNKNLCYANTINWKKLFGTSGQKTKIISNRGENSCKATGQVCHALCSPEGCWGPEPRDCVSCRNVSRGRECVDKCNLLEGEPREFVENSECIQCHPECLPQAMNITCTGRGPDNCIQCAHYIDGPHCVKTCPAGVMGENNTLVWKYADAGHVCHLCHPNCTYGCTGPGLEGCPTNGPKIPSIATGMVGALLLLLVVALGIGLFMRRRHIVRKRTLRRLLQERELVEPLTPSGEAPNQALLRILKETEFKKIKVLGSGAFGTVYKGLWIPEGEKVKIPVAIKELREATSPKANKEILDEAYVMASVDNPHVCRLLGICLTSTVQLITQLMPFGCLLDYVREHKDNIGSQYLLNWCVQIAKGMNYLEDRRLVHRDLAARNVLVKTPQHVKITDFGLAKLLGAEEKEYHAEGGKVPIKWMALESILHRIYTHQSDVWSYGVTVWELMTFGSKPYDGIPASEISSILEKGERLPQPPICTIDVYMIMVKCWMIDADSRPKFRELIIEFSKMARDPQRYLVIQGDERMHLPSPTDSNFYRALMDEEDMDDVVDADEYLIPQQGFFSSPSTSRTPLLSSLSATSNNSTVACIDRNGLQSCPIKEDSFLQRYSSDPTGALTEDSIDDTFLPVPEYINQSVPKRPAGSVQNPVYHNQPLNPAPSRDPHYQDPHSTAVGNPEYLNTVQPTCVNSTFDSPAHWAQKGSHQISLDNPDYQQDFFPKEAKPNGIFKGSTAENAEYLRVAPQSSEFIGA
# Protocol: Autophosphorylation Inhibition Experiments:
# EGFR-TK source: As a source of EGFR-TK, A431 human epidermoid carcinoma cell lysate was used. A431 cells were grown in DMEM containing 10% fetal calf serum and antibiotics penicillin and streptomycin). After several days, the cells were removed from the flasks by incubation at 37° C. with PBS/i mM EDTA buffer for 1 hour. […] Cell lysate was obtained with a further centrifugation (10,000 rpm×10 minutes at 4° C.), and the supernatant was collected and frozen at -70° C. in aliquots.
# ELISA assay: EGFR-TK autophosphorylation IC50 values were obtained by means an ELISA assay. All the following incubations were performed at room temperature and with constant shaking. After each step the plate was washed with water (5×) and TBST buffer (1×). The final volume for each well was 150 μl. A Coming 96 well ELISA plate was coated with monoclonal anti EGFR antibody m108 (Sugen Inc.) diluted in PBS (pH 8.2), and kept overnight at 4° C.
# After removing the unbound m108, the plate was washed and PBS containing 5% milk (1% fat) was added for the blocking (25 minutes). One aliquot of A431 cell lysate was thawed and added to the plate.
# After 25 minutes, seven different concentrations of each inhibitor were added, and for each case one well was left as a control. All inhibitors were diluted in TBS/DMSO and the final concentration of DMSO was 0.05% in each well (including the controls).
# After 25 minutes, and without washing the plate, ATP/MnCl2 solution was added in each well. The final concentration was 3 μM ATP/5 mM MnCl2. In this step the temperature was kept at 26° C. and the plate was under constant shaking. The incubation with ATP/MnCl2 was for 5 minutes.
# Then, to stop the phosphorylation reaction, EDTA was added (pH 8, final concentration in each well 20 mM) and after 1 minute all the plate was washed.
# Afterward, polyclonal anti-phosphotyrosine serum (Sugen, Inc.) was added (dilution of antibody in TBST containing 5% milk). The incubation was for 45 minutes.
# For the calorimetric detection of phosphotyrosine in EGFR-TK, TAGO anti-rabbit peroxidase conjugate antibody (Sugen, Inc.) was added in TBST/5% milk solution (45 minutes).
# After washing, the colorimetric reaction was performed by adding ABTS/H2 O2 in citrate-phosphate buffer.
# The analysis of the data was performed with "Regression" software.
# Since the exact concentrations of m108 in the stock solution and EGFR-TK in the cell lysate were unknown, an experiment was performed to determine the optimal dilution of m108 stock and lysate. Stock m108 (approx. 0.2-0.5 μg/μl) was diluted 1:400, 1:600, 1:800 and 1:1000 with PBS, while A431 cell lysate was diluted 1:2, 1:4, 1:6, 1:8, and 1:10.
# [1] = cited from earlier work
# [2] = average ± SEM, A431 cell lysate, 3 μM ATP/5 mM MnCl2, Table 1, read-out: Autophosphorylation IC50
# [3] = read-out: IC50 toward epidermal growth factor receptor tyrosine kinase activity (autophosphorylation)
IC50 (EGFR-TK; [2]),IC50 (EGFR-TK; [3]),SMILES,EGFR-TK autophosphorylation inhibitor potency (EGFR-TK),"plasma level after approximately 3 hours, % of the maximum ([1]; of maximum, after approximately 3 hours)",metabolism ([1]; two identified as 6- and 7-monodemethylated derivatives)
76.1 ± 3.2 nM,76 nM and 76.1 nM,"COc1cc2ncnc(Nc3ccc(F)cc3)c2cc1OC [Compound 1, 4-[(4-Fluorophenyl)amino]-6,7-dimethoxyquinazoline]",,,
116 ± 14 nM,116 nM,"COc1cc2ncnc(Nc3cc(F)cc(C(F)(F)F)c3)c2cc1OC [Compound 3, ^4-[(3-Fluoro-5-trifluoromethylphenyl)amino]-6,7-dimethoxyquinazoline]",,,
0.22 ± 0.18 nM,0.22 nM,"COc1cc2ncnc(Nc3cc(Cl)c(Cl)cc3F)c2cc1OC [Compound 4, 4-[(3,4-Dichloro-6-fluorophenyl)amino]-6,7-dimethoxyquinazoline]",most potent inhibitor; also recorded: very potent EGFR-TK autophosphorylation inhibitor,,
,,COc1cc2ncnc(Nc3cccc(Br)c3)c2cc1OC [PD 153035],,2%,metabolism to four compounds
